# In US5866576A, “Epoxide-containing compounds” (Cell Therapeutics, Inc., priority 1997, dated 1999):
# Key:
# [1] = system: Ramos B-cell tumor line; test: B-cell proliferation, Ramos line stimulated with anti-mu or PMA (FIG. 3); assay type: cell-based, human; details: 250 μM, anti-mu or PMA (5 nM)
# Method: A Ramos […] tumor line was treated with 250 μM 1808 or 1605 for one hour prior to stimulation of proliferation with anti-mu antibody or phorbol myristic acid (PMA, 5 nM). One day later, proliferation was measured with tritiated thymidine.
# This example illustrates a comparison of inventive compounds nos. 1605 and 1808 for inhibition of B-cell proliferation. A Ramos B-cell tumor line was treated with 250 μM 1808 or 1605 for one hour prior to stimulation of proliferation with anti-mu antibody or PMA (5 nM). One day later, proliferation was measured with tritiated thymidine.
# [2] = system: vascular cell adhesion molecule-1 (VCAM) in human umbilical vein endothelial cells (HUVEC); test: cell surface expression of VCAM in TNF-α stimulated HUVEC, flow cytometry (FIG. 6); assay type: cell-based; details: TNF-α 20 ng/ml, 20 hrs
# Method: The HUVEC cells were stimulated with 20 ng/ml TNF-α for 20 hrs and then stained for immunofluorescence using a monoclonal antibody recognizing VCAM, followed by a goat anti-mouse antibody conjugated to phycoerythrin. The cells were analyzed for antibody binding using flow cytometry.
# This example illustrates the effects of inventive compounds nos. 1605, 1808 and 1906 to inhibit cell surface expression of vascular cell adhesion molecule-1 (VCAM) in human umbilical vein endothelial cells (HUVEC). The HUVEC cells were stimulated with 20 ng/ml TNF-α for 20 hrs and then stained for immunofluorescence using a monoclonal antibody recognizing VCAM, followed by a goat anti-mouse antibody conjugated to phycoerythrin. The cells were analyzed for antibody binding using flow cytometry.
# [3] = system: human stromal cells; test: PDGF-induced proliferation of human stromal cells (FIG. 4); assay type: cell-based; details: PDGF-BB 50 ng/ml
# Method: (§1) Human stromal cells were starved in serum-free media for 24 hours and then stimulated with 50 ng/ml of PDGF-BB. The drugs were added at various indicated concentrations one hour prior to PDGF stimulation. Tritiated thymidine was added for 24 hrs at the time of PDGF stimulation to measure cellular proliferation. Background counts were approximately 5% of control levels.
# as §1, with “This example illustrates a comparison of inventive compounds nos. 1605, 1808 and 1906 on PDGF-induced (platelet derived growth factor) proliferation of human stromal cells. Human” for “Human”, “hours” for “hrs”
# [4] = system: thymocytes; test: murine thymocyte proliferation assay co-stimulated by ConA and IL-2 (FIGS. 7A-7E); assay type: cell-based, Balb/C mice; details: Mus musculus, FIG. 7A
# From the text: This example illustrates dose response curves used to generate 50% inhibition concentrations (IC50) for inventive compounds nos. 1410, 1439, 1541, 1553, 1553S, 1560, 1565, 2548R, 2548S and 2562 in a murine thymocyte proliferation assay, co-stimulated by Concanavalin A (ConA) and interleukin-2 alpha (IL-2). ConA, used to activate the T-cell receptor (TCR), along with IL-2 co-stimulation, induces T-cell proliferation and differentiation. Thymuses, obtained from normal, female Balb/C mice, were dissociated and plated into 96-well plates at a density of 2×10^5 cells/well. ConA (0.25 mg/ml) and IL-2 (15 U/ml) were added to the wells. The cells were incubated for 4 days at 37° C. On day 4, the cells were pulsed with tritiated thymidine and incubated for an additional 4 hours. The amount of tritiated thymidine incorporated by the harvested cells was determined in a liquid scintillation counter. Doses of inventive compounds (shown in FIGS. 7A-7E) were added two hours prior to ConA and IL-2 activation. Background counts were less than 200 cpm. Results obtained, illustrate the ability of the inventive compounds to inhibit thymocyte proliferation and activation. In FIG. 7A, inventive compounds nos. […] FIG. 7B presents additional data for compound no. 1410 and 1553S in this assay. […] FIG. 7C reports assay results for inventive compounds nos. 1439, 1541, 1560 and 1565. […] FIGS. 7D and 7E illustrate assay results for inventive compounds nos. 1541, 1553, 1560 and 1565 (FIG. 7D) and 2562, […] (FIG. 7E). As is true of other inventive compounds tested, all these compounds represented in FIGS. 7D and 7E inhibit thymocyte proliferation. […] 1541, 1553, 1560, 1565, 2562, 2548R and 2548S, respectively.
# [5] = system: U937 cells; human umbilical vein endothelial cells (HUVEC); test: adhesion of U937 cells to TNF-α activated HUVEC (FIG. 5); assay type: cell-based; details: TNF-α 20 ng/ml, 12 hours
# Method: HUVEC cells were activated with 20 ng/ml of TNF for 12 hrs. Drug was added to each culture (except for controls) one hour prior to adding TNF. U937 cells, preloaded with the fluorescent dye BCECF, were added to each culture well and then washed. Cell adhesion was determined on a fluorescence plate reader, showing a decrease in cell adhesion caused by all three drugs in a dose dependent fashion.
# This example illustrates a comparison of the effects of inventive compounds nos. 1605, 1808 and 1906 to inhibit adhesion of U937 cells to activated human umbilical vein endothelial cells (HUVEC). HUVEC cells (4000/ well, seeded 72 hours in advance) were activated with 20 ng/ml of TNF-α for 12 hours. Drug was added to the HUVEC (except for controls) one hour prior to adding TNF-α. U937 cells, preloaded with the fluorescent dye BCECF, were added to each culture well and then washed twice with PBS. Cell adhesion was determined by measuring the fluorescence of adhering U937 cells on a fluorescence plate reader.
# [6] = system: thymocytes; test: thymocyte proliferation co-stimulated with Con A and/or IL-1α (FIG. 2); assay type: cell-based, Balb/C mice; details: three dose levels
# Method: The thymocytes were obtained from normal female Balb/C mice and stimulated with Concanavalin A (Con A) and/or interleukin-1 alpha (L-1α). Drugs were added to the cell cultures two hours before activation with Con A and/or IL-1α.
# This example illustrates a comparison of three dose levels of inventive compounds nos. 1808 and 1906 and no drug control to inhibit thymocyte proliferation. The thymocytes were obtained from normal female Balb/C mice and co-stimulated with Concanavalin A (Con A) and/or IL-1α (interleukin-1 alpha). The thymuses were dissociated and plated into 96-well plates at a density of 2×10^5 cells/well. Dilutions of Con A and/or IL-1α were added to the wells and the cells were incubated for 4 days at 37° C. Drugs were added to the cell cultures two hours before activation with Con A and/or IL-1α. On day 4, the cells were pulsed with tritiated thymidine and allowed to incubate an additional 4 hrs. The cells were harvested and counted.
# [7] = system: PBMC (peripheral blood mononuclear cells); test: two-way mixed lymphocyte reaction, PBMC (FIG. 1); assay type: cell-based; details: for potency in mixed lymphocyte reaction compared with PTX: PTX not shown on graph
# From the text: This example illustrates the effects of inventive compounds nos. 1605, 1808 and 1906 as immune modulators in a mixed lymphocyte reaction. […] 1605, 1808 and 1906.
# [8] = system: LPS-induced TNF release in whole human blood; test: LPS-induced TNF release in whole human blood (FIG. 14); assay type: cell-based; details: LPS 10 ng/ml, read-out: inhibition of TNF-α induction
# Method: This example illustrates inhibitive effects of the inventive compounds on LPS-induced TNF release. Data collected is reported as percent inhibition of LPS induced TNF release in whole human blood as compared with control values of TNF release.
# In this assay, whole blood was collected from a healthy human donor into Vacutainer tubes containing ACD citrate anti-coagulant. Compounds to be tested were diluted in RPMI medium and added (5 μl) to tubes containing whole blood (225 μl). The tubes were mixed and incubated for a maximum of 1 hour at 37° C. LPS Salmonella abortus equi was diluted in RPMI and added to samples at 20 μl per tube (10 ng/ml final concentration). The prepared tubes were mixed and incubated for 4-6 hours at 37° C. The reaction was terminated by adding 750 μl of RPMI to each tube, then centrifuged to remove cells. Supernatants are collected and stored overnight at 4° C. Supernatant samples are assayed for TNF release using commercial immunoassay kits.
# [9] = system: Balb/3T3 cells; test: PDGF-stimulated Balb/3T3 cell proliferation; assay type: cell-based; details: FIGS. 8A (1409), 8B (1560); PDGF/BB
# Method: Balb/3T3 cells respond vigorously to PDGF stimulation, and are useful in vitro models for further study of PDGF-induced proliferation. Disregulated PDGF-proliferative response has been linked to a variety of diseases, including, e.g., restenosis, atherosclerosis, fibrosis, and tumor cell angiogenesis.
# Balb/3T3 cells were maintained in exponential growth. The cells were removed from a flask with EDTA and plated into 96 well plates at 3000 cells/well. After 48 hours, the media was removed, the cells washed once with PBS and serum free media and the cultures allowed to rest for a 24 hour period. Inventive compounds were added to the wells containing media and Balb/3T3 cells one hour prior to incubation with PDGF/BB, added at constant 10 μM concentrations along with 1 μ Ci 3-H-thymidine dye. Cells were subsequently incubated for 18-24 hours, harvested, and incorporated thymidine assessed on a Packard Topcount to determine degree of cell proliferation. Data obtained in this assay was used to determine experimental 50% inhibition concentrations for the inventive compounds tested.
# [10] = system: Balb/3T3 cells; test: Balb/3T3 cytotoxicity assay (BCECF-AM); assay type: cell-based; details: FIGS. 8C, 8D
# Method: In conjuction with the Balb/3T3 proliferation assay conducted above, a Balb/3T3 cytotoxicity assay was conducted to determine that the inhibition on proliferation was not due to cytotoxic effects. This assay is similar to the assay decribed above except tritiated thymidine was not added and after 18-24 hours incubation with PDGF/BB and a lOuM solution of 2,7-bis-(2-carboxyethyl)-5(and-6)carboxyflouresceinacetoxymethyl ester (BCECF-AM) was added for 30 minutes at 37° C. (BCECF is a compound that when cleaved by esterases, yields a fluorescent product in viable cells only, therefore providing a measure of viable cell numbers). Following sufficient incubation, BCECF is replaced with PBS and the plate examined with flourescence in a Millipore "cytofluor." The data is compiled and plotted.
SMILES,inhibition of B-cell proliferation [1],mean fluorescence (VCAM surface expression) [2],inhibition of PDGF-induced proliferation [3],IC50 [4],inhibition of U937 cell adhesion to HUVEC [5],inhibition of thymocyte proliferation [6],activity in mixed lymphocyte reaction (immune modulation) [7],potency in mixed lymphocyte reaction compared with PTX [7],inhibition at 50 µM [8],inhibition of Balb/3T3 proliferation [9],cytotoxic effects [10]
"Cn1ccc(=O)n(CCCCC2CO2)c1=O (centres unmarked) [Compound 1808, 3-(5,6-Oxidohexyl)-1-methyluracil]",inhibited proliferation,Mean fluorescence levels were decreased,inhibited PDGF-induced stimulation in a dose response fashion,99 µM,decrease in cell adhesion induced by TNF-α in a dose dependent fashion,inhibited thymocyte proliferation is a dose-dependent fashion,demonstrated activity,more potent than PTX,,,
"CCCCCCCCC1OC1CCCCCCCCn1c(=O)c2c(ncn2C)n(C)c1=O (centres unmarked) [Compound 2541, 1-(9,10-Oxidooctadecyl)-3,7-dimethylxanthine]",,,,,,,,,25%,,
"O=C1CCCC(=O)N1CCCCC1CO1 (centres unmarked) [Compound 1605, N-(5,6-Oxidohexyl) glutarimide]",inhibited proliferation,Mean fluorescence levels were decreased,inhibited PDGF-induced stimulation in a dose response fashion,,decrease in cell adhesion induced by TNF-α in a dose dependent fashion,,demonstrated activity,more potent than PTX,,,
"Cn1c(=O)n(CCCCCCCC2CO2)c(=O)c2c1ncn2COC(=O)C(C)(C)C (centres unmarked) [Compound 1409, 1-(8,9-Oxidononyl)-3-methyl-7-methylpivaloylxanthine]",,,,,,,,,,inhibit Balb/3T3 proliferation,without exhibiting cytotoxic effects
"Cc1cn(C)c(=O)n(CCCCC2CO2)c1=O (centres unmarked) [Compound 1906, 3-(5,6-Oxidohexyl)-1-methylthymine]",,Mean fluorescence levels were decreased,inhibited PDGF-induced stimulation in a dose response fashion,,decrease in cell adhesion induced by TNF-α in a dose dependent fashion,inhibited thymocyte proliferation is a dose-dependent fashion,demonstrated activity,more potent than PTX,,,
